ChEMBL document CHEMBL1201862, “PubChem BioAssay data set” (2004)
One block for each compound: values may come before it. Activity calls are given as the source filed them.

Experiments:
[1] = viability loss in Vero cells – cytotoxicity control for Vif-APOBEC3G degradation inhibitor project, dose response (AID 1117358); format: functional; conditions: Vero
[2] = biological target: Voltage-gated inwardly rectifying potassium channel KCNH2 (Homo sapiens, UniProt Q12809); test: concentration-dependent hERG rescue from blockers – cell-based, thallium flux, dose response (AID 2121); format: ADME
Chain of Voltage-gated inwardly rectifying potassium channel KCNH2 (Q12809 whole entry): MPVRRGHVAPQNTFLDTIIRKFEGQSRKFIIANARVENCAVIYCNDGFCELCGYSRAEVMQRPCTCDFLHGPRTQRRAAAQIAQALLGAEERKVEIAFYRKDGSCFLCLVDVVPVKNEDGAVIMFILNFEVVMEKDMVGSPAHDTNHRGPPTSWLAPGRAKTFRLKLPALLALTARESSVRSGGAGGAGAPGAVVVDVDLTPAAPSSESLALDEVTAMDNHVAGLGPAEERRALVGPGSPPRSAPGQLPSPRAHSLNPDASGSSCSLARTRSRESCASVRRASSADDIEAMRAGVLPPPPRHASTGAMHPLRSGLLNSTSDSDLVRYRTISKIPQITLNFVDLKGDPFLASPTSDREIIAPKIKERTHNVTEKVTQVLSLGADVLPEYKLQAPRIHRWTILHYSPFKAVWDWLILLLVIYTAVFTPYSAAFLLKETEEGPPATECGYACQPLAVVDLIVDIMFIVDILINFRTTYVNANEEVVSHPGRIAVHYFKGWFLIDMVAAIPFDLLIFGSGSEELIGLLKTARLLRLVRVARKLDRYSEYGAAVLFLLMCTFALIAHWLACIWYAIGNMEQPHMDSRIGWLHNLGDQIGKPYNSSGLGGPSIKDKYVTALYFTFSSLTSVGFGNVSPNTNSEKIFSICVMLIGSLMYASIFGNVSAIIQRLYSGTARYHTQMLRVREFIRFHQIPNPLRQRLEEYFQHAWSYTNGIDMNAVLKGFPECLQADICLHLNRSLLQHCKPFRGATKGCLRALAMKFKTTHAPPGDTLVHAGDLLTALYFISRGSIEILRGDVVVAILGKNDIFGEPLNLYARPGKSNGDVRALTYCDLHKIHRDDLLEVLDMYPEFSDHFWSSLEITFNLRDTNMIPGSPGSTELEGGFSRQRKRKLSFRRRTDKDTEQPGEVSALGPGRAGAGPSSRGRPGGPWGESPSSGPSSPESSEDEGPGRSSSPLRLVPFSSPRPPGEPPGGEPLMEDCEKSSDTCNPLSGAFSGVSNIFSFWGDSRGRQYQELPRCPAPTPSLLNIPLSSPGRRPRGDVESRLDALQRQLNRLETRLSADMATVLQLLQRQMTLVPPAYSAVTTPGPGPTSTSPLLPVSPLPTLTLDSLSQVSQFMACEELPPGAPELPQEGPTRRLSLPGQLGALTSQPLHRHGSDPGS

Kallikrein-7 = Kallikrein-7 (Homo sapiens, UniProt P49862); test: Fluorescence Intensity-based biochemical primary high throughput dose response assay to identify activators of kallikrein-7 (K7) zymogen.
Chain of Kallikrein-7 (P49862 whole entry): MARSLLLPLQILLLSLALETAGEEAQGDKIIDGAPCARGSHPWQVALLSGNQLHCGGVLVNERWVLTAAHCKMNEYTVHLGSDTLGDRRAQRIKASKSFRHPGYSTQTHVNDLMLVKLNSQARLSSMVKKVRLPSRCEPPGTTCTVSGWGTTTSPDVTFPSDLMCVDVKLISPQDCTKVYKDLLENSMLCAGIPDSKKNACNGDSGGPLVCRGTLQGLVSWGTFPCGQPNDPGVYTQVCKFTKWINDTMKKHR

[3] = biological target: Heat shock protein HSP 90-alpha (Homo sapiens, UniProt P07900); test: Luminescence-based dose response biochemical high throughput screening assay for inhibitors of the Heat Shock Protein 90 (HSP90). [Related pubchem assays: 1831 (Summary AID.), 1846 (Confirmation screen.), 1789 (Primary screen.)]
[4] = biological target: FAD-linked sulfhydryl oxidase ALR (Homo sapiens, UniProt P55789); test: ALR-catalysed DTT oxidation blockers – biochemical, H2O2 detection, luminescence, cherry-pick, dose response (AID 493248)
Chain of FAD-linked sulfhydryl oxidase ALR (P55789 whole entry): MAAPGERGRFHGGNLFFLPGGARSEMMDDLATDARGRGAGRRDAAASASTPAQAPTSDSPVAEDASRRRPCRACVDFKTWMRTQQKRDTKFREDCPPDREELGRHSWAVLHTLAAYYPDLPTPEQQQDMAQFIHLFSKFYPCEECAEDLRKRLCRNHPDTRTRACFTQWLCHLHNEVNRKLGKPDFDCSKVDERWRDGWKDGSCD

[5] = biological target: Peroxisome proliferator-activated receptor gamma/Nuclear receptor corepressor 2 (Homo sapiens, UniProt P37231+Q9Y618); test: Counterscreen for NR2E3 inverse agonists: TR-FRET-based biochemical high throughput dose response assay to identify inverse agonists of the interaction between peroxisome proliferator-activated receptor gamma (PPARg) and nuclear receptor co-repressor 2 (NCOR2).; format: functional
Chain of Peroxisome proliferator-activated receptor gamma/Nuclear receptor corepressor 2 (P37231 whole entry): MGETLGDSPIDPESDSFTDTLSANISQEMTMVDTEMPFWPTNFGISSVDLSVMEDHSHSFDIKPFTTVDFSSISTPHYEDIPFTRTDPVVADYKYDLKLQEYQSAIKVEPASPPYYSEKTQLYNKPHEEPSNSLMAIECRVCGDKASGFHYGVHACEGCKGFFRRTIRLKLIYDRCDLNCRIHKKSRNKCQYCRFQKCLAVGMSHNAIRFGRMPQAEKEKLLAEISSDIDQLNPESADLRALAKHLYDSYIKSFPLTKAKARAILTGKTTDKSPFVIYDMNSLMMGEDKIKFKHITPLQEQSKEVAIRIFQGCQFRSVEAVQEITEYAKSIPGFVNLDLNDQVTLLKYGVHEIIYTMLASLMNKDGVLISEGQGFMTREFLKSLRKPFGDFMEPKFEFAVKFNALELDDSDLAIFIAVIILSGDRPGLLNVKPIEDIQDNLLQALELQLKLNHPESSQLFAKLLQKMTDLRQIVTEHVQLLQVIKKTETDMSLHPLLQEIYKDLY
Chain of Peroxisome proliferator-activated receptor gamma/Nuclear receptor corepressor 2 (Q9Y618 whole entry): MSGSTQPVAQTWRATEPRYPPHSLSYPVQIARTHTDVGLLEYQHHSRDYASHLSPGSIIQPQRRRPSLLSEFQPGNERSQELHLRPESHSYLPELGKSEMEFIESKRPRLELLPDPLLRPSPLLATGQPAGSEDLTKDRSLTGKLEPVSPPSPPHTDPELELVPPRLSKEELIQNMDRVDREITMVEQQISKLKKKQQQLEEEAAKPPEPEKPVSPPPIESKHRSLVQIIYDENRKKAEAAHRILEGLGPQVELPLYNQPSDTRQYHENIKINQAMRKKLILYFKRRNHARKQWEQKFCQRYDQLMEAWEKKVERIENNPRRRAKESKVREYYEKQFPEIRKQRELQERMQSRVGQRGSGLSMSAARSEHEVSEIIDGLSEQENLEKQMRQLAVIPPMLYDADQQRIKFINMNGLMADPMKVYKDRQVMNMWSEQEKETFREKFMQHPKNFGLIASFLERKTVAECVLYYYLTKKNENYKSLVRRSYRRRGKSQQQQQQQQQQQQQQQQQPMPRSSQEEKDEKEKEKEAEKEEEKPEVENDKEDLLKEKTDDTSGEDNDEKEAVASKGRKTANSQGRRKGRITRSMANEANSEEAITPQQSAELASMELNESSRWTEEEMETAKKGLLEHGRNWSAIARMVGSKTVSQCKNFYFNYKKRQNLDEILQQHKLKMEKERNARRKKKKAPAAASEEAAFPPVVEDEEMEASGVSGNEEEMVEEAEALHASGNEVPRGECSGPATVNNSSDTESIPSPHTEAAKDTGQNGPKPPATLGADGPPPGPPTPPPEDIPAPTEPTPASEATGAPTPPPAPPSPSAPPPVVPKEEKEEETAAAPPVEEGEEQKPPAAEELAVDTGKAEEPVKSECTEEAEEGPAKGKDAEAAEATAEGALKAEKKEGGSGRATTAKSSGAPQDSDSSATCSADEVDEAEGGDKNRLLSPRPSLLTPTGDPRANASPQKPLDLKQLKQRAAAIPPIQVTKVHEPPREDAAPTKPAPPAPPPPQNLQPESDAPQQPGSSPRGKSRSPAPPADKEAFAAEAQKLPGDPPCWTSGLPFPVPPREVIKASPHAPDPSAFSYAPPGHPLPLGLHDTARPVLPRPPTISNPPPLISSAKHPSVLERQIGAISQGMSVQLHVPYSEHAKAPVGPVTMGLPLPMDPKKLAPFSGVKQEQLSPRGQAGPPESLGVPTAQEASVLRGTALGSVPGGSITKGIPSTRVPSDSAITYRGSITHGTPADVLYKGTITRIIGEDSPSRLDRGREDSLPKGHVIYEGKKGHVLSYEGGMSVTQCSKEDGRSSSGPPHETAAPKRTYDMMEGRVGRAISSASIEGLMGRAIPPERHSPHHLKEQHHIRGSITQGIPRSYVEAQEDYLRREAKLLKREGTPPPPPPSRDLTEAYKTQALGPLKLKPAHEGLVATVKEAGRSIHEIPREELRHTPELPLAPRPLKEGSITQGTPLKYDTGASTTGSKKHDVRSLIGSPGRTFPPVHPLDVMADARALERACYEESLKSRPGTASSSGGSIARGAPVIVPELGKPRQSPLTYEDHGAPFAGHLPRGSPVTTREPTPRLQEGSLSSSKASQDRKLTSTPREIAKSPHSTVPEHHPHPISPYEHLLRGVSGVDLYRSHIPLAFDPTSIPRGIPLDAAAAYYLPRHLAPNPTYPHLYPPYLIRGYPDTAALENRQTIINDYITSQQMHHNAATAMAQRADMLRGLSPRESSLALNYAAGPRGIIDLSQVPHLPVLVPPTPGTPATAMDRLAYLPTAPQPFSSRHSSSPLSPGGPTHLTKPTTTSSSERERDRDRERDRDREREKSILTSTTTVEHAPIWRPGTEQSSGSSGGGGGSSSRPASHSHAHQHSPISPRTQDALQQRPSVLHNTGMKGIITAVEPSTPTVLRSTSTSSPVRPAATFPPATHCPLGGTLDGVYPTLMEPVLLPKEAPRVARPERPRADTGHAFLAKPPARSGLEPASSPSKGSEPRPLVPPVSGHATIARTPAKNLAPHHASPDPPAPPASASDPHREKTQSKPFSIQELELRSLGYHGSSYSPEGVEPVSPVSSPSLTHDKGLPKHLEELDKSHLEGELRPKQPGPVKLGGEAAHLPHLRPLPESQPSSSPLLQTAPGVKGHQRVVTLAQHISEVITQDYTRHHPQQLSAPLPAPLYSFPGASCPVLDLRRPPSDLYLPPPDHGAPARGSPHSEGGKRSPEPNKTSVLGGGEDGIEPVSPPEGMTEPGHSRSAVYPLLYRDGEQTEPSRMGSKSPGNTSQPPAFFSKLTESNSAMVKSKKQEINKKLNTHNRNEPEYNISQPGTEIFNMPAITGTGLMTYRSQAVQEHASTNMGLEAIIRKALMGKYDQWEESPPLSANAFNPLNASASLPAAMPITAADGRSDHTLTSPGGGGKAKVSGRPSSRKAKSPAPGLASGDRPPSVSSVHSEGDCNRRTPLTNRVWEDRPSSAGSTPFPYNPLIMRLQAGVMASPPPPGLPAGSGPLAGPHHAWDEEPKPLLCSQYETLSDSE

[6] = biological target: Photoreceptor-specific nuclear receptor (Homo sapiens, UniProt Q9Y5X4); test: ligands suppressing NR2E3 nuclear receptor activity – biochemical, TR-FRET, dose response (AID 463256); format: functional
Chain of Photoreceptor-specific nuclear receptor (Q9Y5X4 whole entry): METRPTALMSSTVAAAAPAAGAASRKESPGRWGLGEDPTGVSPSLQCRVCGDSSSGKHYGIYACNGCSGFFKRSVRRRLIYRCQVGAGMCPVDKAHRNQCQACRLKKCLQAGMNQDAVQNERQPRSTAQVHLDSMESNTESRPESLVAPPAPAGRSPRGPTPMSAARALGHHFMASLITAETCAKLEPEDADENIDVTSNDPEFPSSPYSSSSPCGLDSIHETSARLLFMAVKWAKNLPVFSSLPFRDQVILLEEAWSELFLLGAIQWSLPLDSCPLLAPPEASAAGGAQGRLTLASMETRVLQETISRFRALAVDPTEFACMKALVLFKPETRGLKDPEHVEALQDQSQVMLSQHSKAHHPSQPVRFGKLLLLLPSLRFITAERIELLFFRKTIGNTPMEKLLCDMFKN

[7] = biological target: 1-phosphatidylinositol 4,5-bisphosphate phosphodiesterase gamma-1 (Homo sapiens, UniProt P19174); test: Counterscreen for inhibitors of phospholipase C isozymes (PLC-B3): Fluorescence-based biochemical high throughput dose response assay to identify inhibitors of phospholipase C isozymes (PLC-gamma1).
[8] = biological target: 1-phosphatidylinositol 4,5-bisphosphate phosphodiesterase beta-3 (Homo sapiens, UniProt Q01970); test: Fluorescence-based biochemical high throughput dose response assay to identify inhibitors of phospholipase C isozymes (PLC-B3).
[9] = biological target: T1, Ubiquitin-conjugating enzyme E2 N (Homo sapiens, UniProt P61088); format: functional;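 further: Dose-response confirmation in a TR-FRET assay detecting UBC13-driven polyubiquitin chain formation, inhibition measured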
T1 sequence (P61088 whole entry): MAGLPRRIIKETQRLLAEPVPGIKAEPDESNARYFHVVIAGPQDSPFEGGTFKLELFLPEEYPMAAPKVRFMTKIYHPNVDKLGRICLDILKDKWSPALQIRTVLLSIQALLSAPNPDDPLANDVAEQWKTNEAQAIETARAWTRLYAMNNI

[10] = viability inhibitors of stage V gametocytes – luminescence, dose response (AID 1117278); format: functional, cell-based;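 further: gametocytes exposed to compound for 24 hours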
[11] = viability loss in human Jurkat cells – cell-based, luminescence, cytotoxicity control for P. falciparum gametocyte viability project, dose response (AID 1117277); format: functional;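 further: potency reflects loss of cellular ATP meaning fewer viable cells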
Prothrombin = Prothrombin (Homo sapiens, UniProt P00734); test: Thrombin 1536 HTS Dose Response Confirmation. [Related pubchem assays: 1046 (Thrombin 1536 HTS; hits were confirmed in this assay)]; format: functional
[12] = reduction of Shn3 3'UTR-driven luciferase in osteoblasts – cell-based, Clone20 osteoblasts, firefly luciferase, cherry-picked, dose response (AID 624132); format: functional;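 further: firefly luciferase luminescence from reporter carrying the Shn3 3'UTR in osteoblasts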
[13] = loss of viability in HepG2 cells – cell-based, CellTiter-Glo, cherry-picked, cytotoxicity control for Shn3 inhibitor project, dose response (AID 624134); format: functional
[14] = non-specific 3'UTR reporter inhibition in Clone20-Shn3RL – cell-based, Renilla luciferase, cherry-picked, counter-screen for Shn3 inhibitor project, dose response (AID 624133); format: functional
[15] = viability loss in CEM21 cells – cell-based, CellTiter-Glo luminescence, cherry-picked, cytotoxicity control for viral fusion inhibitor project, dose response (AID 652042); format: functional;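 further: potency for signal decrease meaning cytotoxicity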
[16] = HIV-1 AD8 envelope cell-cell fusion blockers – cherry-pick, dose response (AID 652062); format: functional, cell-based;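 further: luciferase signal from cell-cell fusion driven by HIV-1 clade B AD8 Env; potency is for inhibitors of fusion seen as a drop in luminescence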

Structure (SMILES): Cc1ccc(C)c(S(=O)(=O)Nc2ccc3scnc3c2)c1
CC50 [1]: > 40 µM (active)

Structure (SMILES): CCn1c(O)c(N=NC2=NC(=O)CS2)c2ccccc21
EC50 [2]: 4.83 µM (active)

Structure (SMILES): Cc1cc(C)c2nc(-c3ccccn3)cc(C(=O)n3cccn3)c2c1
IC50 [9]: > 20 µM (inactive) | IC50 [10]: > 109 µM (inactive) | IC50 [11]: > 83.2 µM (inactive)

Structure (SMILES): O=C(Nc1ccccn1)C1CCN(S(=O)(=O)c2cccc3nonc23)CC1
IC50 [10]: > 109 µM (inactive) | IC50 [11]: > 83.3 µM (inactive)

Structure (SMILES): CCN(CC)c1ccc(NC(=S)NC(=O)c2cccs2)cc1
EC50 [2]: 1.24 µM (active)

Structure (SMILES): Nc1nonc1C(=O)NCCNCc1cc(Br)ccc1OCc1ccccc1F
AC50 [12]: 2.5 µM (active) | AC50 [13]: 40.4 µM (active) | AC50 [14]: 910 nM (active) | AC50 [15]: 40.5 µM (active) | AC50 [16]: 14.9 µM (active)

Other lines, results leading:

EC50 (Kallikrein-7): > 69.5 µM (inactive)
Structure (SMILES): O=C1c2ccccc2NC(c2ccccc2)N1Cc1ccco1 (stereo not drawn)

IC50 [3]: 8.93 µM (active) | AC50 [4]: 3.31 µM (active)
Structure (SMILES): O=C(O)c1cccc(N2C(=O)/C(=C/c3nc4ccccc4[nH]3)SC2=S)c1

IC50 [5]: 10.9 µM (not active) | IC50 [6]: 8.84 µM (active)
Structure (SMILES): O=C(Nc1ccc(Cl)cc1)c1ccc(-c2ccccn2)s1

IC50 [7]: > 122 µM (inactive) | IC50 [8]: > 122 µM (inactive)
Structure (SMILES): COc1cc(C(=O)Nc2ccc3c(c2)C(=O)N(CCC(=O)O)C3=O)cc(OC)c1OC

IC50 [5]: 4.01 µM (active) | IC50 [6]: 3.62 µM (active)
Structure (SMILES): O=C(Nc1ccc(-c2ccc3nncn3n2)cc1)c1ccc(Br)o1

IC50 (Prothrombin): 297 nM (active)
Structure (SMILES): COC(=O)c1nnc(NC(=O)c2ccc(F)cc2)[nH]1
